This passage reports EC50 and Kd results from publication PMC10995199, “Architecture and regulation of filamentous human cystathionine beta-synthase” (Nature Communications, 2024).

The target in assay [1] is T1, CBS^Δ516–525 (Homo sapiens, UniProt P35520, DEL516-525).
T1 construct: full-length with regulatory domain loop 516-525 deleted, E. coli Rosetta (DE3); dimer; no C-terminal His-tag
T1 sequence (P35520 with tags, fused parts or gaps DEL516-525): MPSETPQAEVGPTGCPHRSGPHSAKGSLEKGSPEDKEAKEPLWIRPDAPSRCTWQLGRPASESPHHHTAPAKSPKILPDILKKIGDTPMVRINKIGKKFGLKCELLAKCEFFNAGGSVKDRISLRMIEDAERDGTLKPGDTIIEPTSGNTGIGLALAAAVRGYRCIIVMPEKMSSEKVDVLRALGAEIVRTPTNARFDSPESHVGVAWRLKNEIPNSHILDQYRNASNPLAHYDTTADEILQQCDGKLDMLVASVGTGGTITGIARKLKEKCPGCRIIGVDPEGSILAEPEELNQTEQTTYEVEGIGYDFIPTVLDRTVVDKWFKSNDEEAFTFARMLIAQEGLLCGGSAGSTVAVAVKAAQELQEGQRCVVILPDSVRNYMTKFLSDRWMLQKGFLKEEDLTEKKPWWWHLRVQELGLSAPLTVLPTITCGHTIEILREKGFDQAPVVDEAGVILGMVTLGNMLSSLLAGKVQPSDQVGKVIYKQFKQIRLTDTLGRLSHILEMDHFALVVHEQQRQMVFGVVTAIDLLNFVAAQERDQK
Briefly: AzMC fluorescence H2S production. In kind it is biochemical. The settings on record: read-out: Kact.

Assay [2] addresses T1, CBS^Δ516–525. Briefly: ITC. The note with it: 25 °C, 20 mM HEPES pH 7.4; two-site fit. In kind it is binding.

Turning to `C[S+](CC[C@H](N)C(=O)O)C[C@H]1O[C@@H](n2cnc3c(N)ncnc32)[C@H](O)[C@@H]1O` (stereo partly drawn) [S-adenosyl-L-methionine], the EC50 on CBS^Δ516–525 [1] is 26 to 36 µM. Moreover, at CBS^Δ516–525 [2], the Kd entry is reported as “also presented two events, though this construct is dimeric”.
